Reference: publication PMC5754397, “Population pharmacokinetics of nintedanib, an inhibitor of tyrosine kinases, in patients with non-small cell lung cancer or idiopathic pulmonary fibrosis” (Cancer Chemotherapy and Pharmacology, 2017)

How the values were obtained:
[1] = design: method as in PMID 21204634; conditions: cited from earlier work
[2] = clinical; conditions: human, in vivo
Experimental: An overview of these studies is provided in Online Resource Table S1. […] Treatment continued until disease progression or intolerable toxicity. […] Treatment cycles were continued until disease progression or intolerable toxicity. […] In all four trials, dose reductions and interruptions were allowed to manage adverse events. All studies were conducted in accordance with the Declaration of Helsinki and with approval of the local ethics committees. Written informed consent was obtained from all patients before study entry. Blood sampling schema for measurement of nintedanib plasma concentrations varied. For all trials, at least two pre-dose and two post-dose blood samples were scheduled during treatment (see Online Resource Table S1). In addition, more extensive sampling was performed in the two Phase II trials. Nintedanib and BIBF 1202 plasma concentrations were analyzed by validated liquid chromatography-mass spectrometry (HPLC-MS/MS) methods. […] The population pharmacokinetic analysis was performed using non-linear mixed-effects modeling techniques (NONMEM, version VI 2.0, ICON Development Solutions, Ellicott City, Maryland, USA). The first-order conditional estimation algorithm with interaction was used. Data processing, diagnostic plots, and calculation of descriptive statistics were performed using R version 2.12.1 (http://www.rproject.org) and SAS version 9.2 (SAS Institute Inc, Cary, NC, USA). Bootstrap analysis was performed using Perl-speaks-NONMEM, version 3.5.3 [24, 25]. A sequential approach was used for population pharmacokinetic model development. […] Inter-individual variability (IIV, η) and inter-occasion variability (IOV, κ) were modeled using exponential random effect models. For testing IOV, each visit was defined as one occasion. […] Model selection was guided by change in objective function values (OFV), identifiability of parameters and precision of parameter estimates, correlation between the estimates of fixed-effect parameters, numerical stability, ability to obtain a successful COVARIANCE step, and visual inspection of basic goodness-of-fit plots. The effects of intrinsic patient factors (e.g., gender, age, body weight, ethnicity, laboratory values, and NSCLC histology) and extrinsic factors (e.g., smoking history and alcohol consumption) on pharmacokinetic parameters of nintedanib were evaluated by applying a stepwise forward inclusion/backward elimination approach. Combinations of covariates and model parameters to be tested were pre-specified based on prior knowledge, physiological plausibility, or general clinical interest (see Online Resource Table S2). Potential effects of patient population (NSCLC versus IPF) or treatment regimen (monotherapy versus combination therapy with docetaxel or pemetrexed) could not be distinguished from trials effects, and were, therefore, not re-evaluated during covariate analysis. To assess the effect of hepatic impairment on apparent total plasma clearance (CL/F) and relative bioavailability (F1), alanine transaminase (ALT), aspartate transaminase (AST), and total bilirubin (BIL) were tested individually and in combination using an adapted liver dysfunction group (LDF) composite developed for organ dysfunction studies by the Organ Dysfunction Working Group of the National Cancer Institute. In this classification, hepatic dysfunction is classified as mild (subdivided into two subgroups), moderate, or severe according to ALT, AST, and BIL levels relative to the upper limit of normal (ULN) (see Table 1). This categorization was preferred over the classical Child-Pugh classification (based on assessments of BIL, albumin, prothrombin time, encephalopathy, and ascites) commonly used to assess surgical risk in cirrhotic patients, as it has potential disadvantages for use in oncology patients. Creatinine clearance (CLCR) estimated by the Cockcroft-Gault equation [31] was used as surrogate for renal function. […]

[3] = design: method as in PMID 20460487, PMID 25299232; conditions: cited from earlier work

## COC(=O)c1ccc2c(c1)NC(=O)/C2=C(\Nc1ccc(N(C)C(=O)CN2CCN(C)CC2)cc1)c1ccccc1 [nintedanib]
[1]
  eliminated in urine: Less than 1%
  excreted in the feces: about 94 % of the dose
[2]
  ALAG: 0.470 (–) h
  CL/F (θCL): 875 (–) L/h
  F1 higher in NSCLC phase II and LUME-Lung 2 trials than in LUME-Lung 1 and IPF phase II trials: 30%
  V2/F (θV2): 617 (–) L
  V2 when applying non-flip-flop kinetics in the final model: 10,700 L
  Vd/F: 465 L
  absorption-rate constant, Phase II trials versus Phase III trials: 2 fold
  change in exposure by any individual covariate at extreme values relative to a typical patient: ≤ 33%
  covariate effect on F1, θAge: 0.00942 (–)
  difference in nintedanib pharmacokinetics for Black patients, alcohol consumption or UGT1A1 polymorphism status: no substantial difference
  dose linearity: No major deviation from dose linearity
  impact of gender, patient population, NSCLC histology, therapy regimen, ECOG status, liver metastases, mild or moderate renal impairment, LDH on nintedanib pharmacokinetics: no statistically significant impact
  increase of F1, mild 1 liver dysfunction category: 8%
  increase of F1, mild 2 liver dysfunction category: 13%
  ka (θka): 0.0391 (–) h^-1
  ka (θka), first-order absorption-rate constant: 0.0376 (7.77) h^−1
  ka higher in phase II NSCLC and IPF trials than in the two NSCLC Phase III trials: 120%
  ka when applying non-flip-flop kinetics in the final model: 1.64 h⁻¹
  ka, absorption rate of a typical patient: 0.0827 h⁻¹
  lag time: 25 min
  percentage change in AUCτ,ss: Chinese/Taiwanese/Indian: ↑33%
  percentage change in AUCτ,ss: Korean: ↓22%
  percentage change in AUCτ,ss: age 45 years (5th percentile): ↓16%
  percentage change in AUCτ,ss: age 76 years (95th percentile): ↑13%
  percentage change in AUCτ,ss: body weight 50 kg (5th percentile): ↑25%
  percentage change in AUCτ,ss: body weight 100 kg (95th percentile): ↓19%
  percentage change in AUCτ,ss: current smoker: Current smoker: ↓21%
  ratios of AUCτ,ss for each factor other than ethnic origin: 80–125%
[2]; absorption half-life
  half-life: 8.38 h
[2]; elimination half-life (population mean)
  half-life: 0.36 h
[3]
  pharmacokinetic interaction between nintedanib and either docetaxel or pemetrexed: no significant pharmacokinetic interaction
